Data reported in publication PMC12277336, “Hypericum empetrifolium subsp. empetrifolium: an assessment of its antifungal, antidiabetic, anti-aging, and neuroprotective potential” (Frontiers in Pharmacology, 2025).
Values after ≈ are worked out from the molar mass of the structure shown. Values joined by “and” are separate entries in the source; they are usually repeats but may differ in a detail not shown here. Identical values can stand only once.

Tests used:
[1] = system: Enterococcus faecalis ATCC 29212; assay: MIC, broth microdilution; type: cell-based; conditions: ATCC29212
Experimental: (§1) The Minimum Inhibitory Concentrations (MIC) of the extracts were determined using the broth microdilution method in accordance with the guidelines of the Clinical and Laboratory Standards Institute (CLSI) ([Clinical and Laboratory Standards Institute, 2020]). The procedure was originally based on the CLSI M27-A2 standard (1997) ([[…]]) for antifungal susceptibility testing, while the updated fourth edition (2017) was referenced to reflect current methodological standards ([[…]]).
(§2) The inocula of the tested bacterial and yeast strains were prepared following CLSI protocols, and the extracts were dissolved in DMSO to prepare stock solutions. Serial dilutions ranging from 1,250 to 0.06 μ g/mL were performed in Mueller-Hinton Broth (for bacterial strains) and RPMI-1640 medium (for yeast strains). MIC values of the extracts were determined against four g (−) bacterial strains (P. aeruginosa ATCC 27853, Escherichia coli ATCC 25922, Klebsiella pneumoniae ATCC 4352, Proteus mirabilis ATCC 14153), three g (+) bacterial strains (Staphylococcus aureus ATCC 29213, Staphylococcus epidermidis ATCC 12228, Enterococcus faecalis ATCC 29212), and three yeast strains (Candida albicans ATCC 10231, Candida parapsilosis ATCC 22019, Candida tropicalis ATCC 750).

[2] = system: Candida parapsilosis ATCC 22019; assay: MIC, broth microdilution; type: cell-based; conditions: Lodderomyces parapsilosis, ATCC22019; C. parapsilosis ATCC 22019
Experimental: as §1, §2

[3] = system: Candida tropicalis ATCC 750; assay: MIC, broth microdilution; type: cell-based; conditions: ATCC750, C. tropicalis ATCC 750
Experimental: as §1, §2

[4] = DPPH free radical scavenging assay
Experimental: The DPPH radical scavenging assay was evaluated using 1,1-diphenyl-2-picrylhydrazyl (DPPH) free radical according to the method developed by [Blois (1958)]. Extracts were dissolved in methanol at a concentration of 1 mg/mL to prepare the primary stock solutions. Aliquots of these solutions, in volumes of 2, 5, 10, and 20 μ L, were each diluted to a final volume of 40 μ L with methanol. Subsequently, 160 μ L of DPPH solution at a 0.1 mM concentration was introduced to each mixture. After the solutions were incubated at room temperature in the dark for 30 min, their absorbance was measured at a wavelength of 517 nm. BHA, BHT, and α -TOC were used as positive control.

[5] = ABTS cation radical scavenging assay
Experimental: The ABTS cation radical scavenging assay was evaluated using 2,2′-azino-bis(3-ethylbenzothiazoline-6-sulfonic acid) according to the method developed by [Re et al. (1999)]. Extracts were dissolved in methanol at a concentration of 1 mg/mL to prepare the primary stock solutions. Aliquots of these solutions, in volumes of 2, 5, 10, and 20 μ L, were each diluted to a final volume of 40 μ L with methanol. Subsequently, 160 μ L of ABTS cation radical solution at a 7 mM concentration was introduced to each mixture. The reactions were allowed to proceed in darkness for 6 min, subsequent to which the absorbance was recorded at a wavelength of 734 nm. BHA, BHT, and α -TOC were used as positive control.

[6] = Cupric reducing antioxidant capacity (CUPRAC); conditions: 450 nm
Experimental: The absorbance of this chelate formation is then quantified at a wavelength of 450 nm. In the CUPRAC method, according to the procedure developed by Apak et al.; Cu (II), neocuproine (2,9-dimethyl-1,10-phenanthroline), and NH4OAc buffer were added to the sample and standard solutions to achieve final concentrations of 10, 25, 50, and 100 μ g/mL. After an incubation period of 1 h, the absorbance was measured at 450 nm. BHA, BHT, and α -TOC were used as positive control ([Apak et al., 2004]).

P. aeruginosa ATCC 27853 = assay: MIC, broth microdilution; type: cell-based; conditions: Pseudomonas aeruginosa, ATCC27853
Experimental: as §1, §2

[7] = system: Escherichia coli ATCC 25922; assay: MIC, broth microdilution; type: cell-based; conditions: E. coli ATCC 25922
Experimental: as §1, §2

[8] = system: Klebsiella pneumoniae ATCC 4352; assay: MIC, broth microdilution; type: cell-based; conditions: K. pneumoniae ATCC 4352
Experimental: as §1, §2

[9] = system: Proteus mirabilis ATCC 14153; assay: MIC, broth microdilution; type: cell-based; conditions: P. mirabilis ATCC 14153
Experimental: as §1, §2

[10] = system: Staphylococcus aureus ATCC 29213; assay: MIC, broth microdilution; type: cell-based; conditions: S. aureus ATCC 29213
Experimental: as §1, §2

[11] = system: Staphylococcus epidermidis ATCC 12228; assay: MIC, broth microdilution; type: cell-based; conditions: S. epidermidis ATCC 12228
Experimental: as §1, §2

[12] = system: Candida albicans ATCC 10231; assay: MIC, broth microdilution; type: cell-based; conditions: ATCC10231, C. albicans ATCC 10231
Experimental: as §1, §2

[13] = molecular target: T1, Porcine pancreatic elastase (Sus scrofa, UniProt P00772); assay: Anti-elastase assay; type: biochemical
T1 construct: Porcine pancreatic elastase (E.C. 3.4.21.36); from tissue; host or cells: porcine pancreas
T1 sequence (P00772 27-266): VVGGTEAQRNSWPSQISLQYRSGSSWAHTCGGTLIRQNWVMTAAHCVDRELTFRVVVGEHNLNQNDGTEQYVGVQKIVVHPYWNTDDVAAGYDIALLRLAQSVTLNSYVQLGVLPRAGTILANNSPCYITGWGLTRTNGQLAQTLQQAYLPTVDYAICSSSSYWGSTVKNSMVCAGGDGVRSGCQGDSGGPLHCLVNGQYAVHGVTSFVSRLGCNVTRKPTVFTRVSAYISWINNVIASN
Experimental: The elastase inhibition assay was conducted using a spectrophotometric method developed by [Lee et al. (1999)]. Porcine pancreatic elastase (E.C. 3.4.21.36) at a concentration of 3.33 mg/mL was used as the enzyme and dissolved in 0.2 mM Tris-HCl buffer (pH 8.0). The substrate, N-Succinyl-Ala-Ala-Ala-p-nitroanilide (SANA), was prepared in the same buffer at a concentration of 1.6 mM. For each reaction, 50 μ L of buffer, 25 μ L of enzyme solution, and 50 μ L of the test extract were pre-incubated at room temperature for 15 min before the addition of SANA. Epigallocatechin gallate (EGCG) was used as the positive control, while ethanol served as the negative control. The reaction was initiated by adding 125 μ L of the substrate solution to the mixture, followed by incubation at room temperature for 20 min. The absorbance change was then measured at 410 nm.

α-Glucosidase = conditions: flavonoids isolated from H. attenuatum; ref Jin et al., 2021; cited from earlier work

SMILES | DPPH (% Inhibition) ([4]; 10 µg/mL) [%] | DPPH (% Inhibition) ([4]; 25 µg/mL) [%] | DPPH (% Inhibition) ([4]; 50 µg/mL) [%] | DPPH (% Inhibition) ([4]; 100 µg/mL) [%] | ABTS (% Inhibition) ([5]; 10 µg/mL) [%] | ABTS (% Inhibition) ([5]; 25 µg/mL) [%] | ABTS (% Inhibition) ([5]; 50 µg/mL) [%] | ABTS (% Inhibition) ([5]; 100 µg/mL) [%] | CUPRAC (Absorbance) ([6]; 10 µg/mL) | CUPRAC (Absorbance) ([6]; 25 µg/mL) | CUPRAC (Absorbance) ([6]; 50 µg/mL) | CUPRAC (Absorbance) ([6]; 100 µg/mL) | other results
NCC[C@H](O)C(=O)N[C@@H]1C[C@H](N)[C@@H](O[C@H]2O[C@H](CN)[C@@H](O)[C@H](O)[C@H]2O)[C@H](O)[C@H]1O[C@H]1O[C@H](CO)[C@@H](O)[C@H](N)[C@H]1O [Amikacin] | – | – | – | – | – | – | – | – | – | – | – | – | MIC [1]: 128 µg/mL (≈ 219 µM)
C[C@@H]1[C@H](O)[C@@H](C)/C=C/C=C/C=C/C=C/C=C/C=C/C=C/[C@H](O[C@@H]2O[C@H](C)[C@@H](O)[C@H](N)[C@@H]2O)C[C@@H]2O[C@](O)(C[C@@H](O)C[C@@H](O)[C@H](O)CC[C@@H](O)C[C@@H](O)CC(=O)O[C@H]1C)C[C@H](O)[C@H]2C(=O)O [Amphotericin B] | – | – | – | – | – | – | – | – | – | – | – | – | MIC [2]: 1 µg/mL (≈ 1.08 µM); MIC [3]: 0.5 µg/mL (≈ 0.541 µM)
COc1ccc(O)c(C(C)(C)C)c1 [BHA] | 62.00 ± 0.90 | 71.86 ± 0.76 | 74.48 ± 0.35 | 75.23 | 63.94 ± 0.18 | 78.23 ± 1.08 | 87.41 ± 0.16 | 87.62 | 0.838 ± 0.03 | 1.647 ± 0.18 | 2.753 ± 0.09 | 3.769 ± 0.05 and 3.769 | –
Cc1cc(C(C)(C)C)c(O)c(C(C)(C)C)c1 [BHT] | 39.28 ± 1.03 | 60.68 ± 4.18 | 69.14 ± 1.84 | 76.17 | 76.35 ± 0.78 | 88.00 ± 2.49 | 88.96 ± 0.13 | 89.13 | 0.652 ± 0.01 | 1.211 ± 0.18 | 2.040 ± 0.31 | 3.559 ± 0.27 and 3.559 | –
CC(C)(O/N=C(\C(=O)N[C@@H]1C(=O)N2C(C(=O)[O-])=C(C[n+]3ccccc3)CS[C@H]12)c1csc(N)n1)C(=O)O [Ceftazidime] | – | – | – | – | – | – | – | – | – | – | – | – | MIC (P. aeruginosa ATCC 27853): 2.4 µg/mL (≈ 4.39 µM)
CO/N=C(\C(=O)N[C@@H]1C(=O)N2C(C(=O)[O-])=C(COC(N)=O)CS[C@H]12)c1ccco1.[Na+] [Cefuroxime-Na] | – | – | – | – | – | – | – | – | – | – | – | – | MIC [7]: 4.9 µg/mL; MIC [8]: 4.9 µg/mL; MIC [9]: 2.4 µg/mL; MIC [10]: 1.2 µg/mL; MIC [11]: 9.8 µg/mL
Clc1ccccc1C(c1ccccc1)(c1ccccc1)n1ccnc1 [Clotrimazole] | – | – | – | – | – | – | – | – | – | – | – | – | MIC [12]: 4.9 µg/mL (≈ 14.2 µM)
C[C@H]1[C@H](C)CC[C@]2(C(=O)O)CC[C@]3(C)C(=CC[C@@H]4[C@@]5(C)CC[C@H](O)C(C)(C)[C@@H]5CC[C@]43C)[C@H]12 [Ursolic acid] | – | – | – | – | – | – | – | – | – | – | – | – | IC50 [13]: 30.2 µM
O=c1c(O[C@@H]2OC[C@H](O)[C@H](O)[C@H]2O)c(-c2ccc(O)c(O)c2)oc2cc(O)cc(O)c12 [guaijaverin] | – | – | – | – | – | – | – | – | – | – | – | – | IC50 (α-Glucosidase): 17.2 ± 0.75 µM
Cc1c(C)c2c(c(C)c1O)CC[C@@](C)(CCC[C@H](C)CCC[C@H](C)CCCC(C)C)O2 [α-TOC] | 63.28 ± 3.28 | 73.51 ± 4.14 | 76.94 ± 0.71 | 78.07 | 65.39 ± 2.37 | 83.47 ± 0.98 | 85.89 ± 2.62 | 88.89 | 0.391 ± 0.01 | 0.904 ± 0.00 | 1.563 ± 0.09 | 2.460 ± 0.09 and 2.460 | –
